Counter-ions that a name gives are not always drawn.
Key:
[1] = Laser diffraction particle size measurement of particles of reference example 1 (Example 4); type: physicochemical; conditions: laser light diffraction, after 240 seconds sonication, FIG. 7
Excerpt: For the measurement, a Sympatec HELOS device with a focal length of 100 mm from Sympatec GmbH, Germany, equipped with a wet dispersion device Cuvette from Sympatec GmbH, Germany was used. The test substance was dispersed in white spirit, Brenntag Schweizerhall AG, Switzerland (catalog number 12200-150) using a dispersing aid (e.g. Statsafe™ 6000, INNOSPEC Limited, ca. 1% in the white spirit).
The particles were mixed intensively, e.g. on a vortex mixer, in order to wet the substance thoroughly and to form a smooth and homogeneous paste. The paste was diluted with the white spirit to a final volume of several milliliters and the stock dispersion was mixed again.
The test dispersion was prepared by diluting of the stock dispersion with white spirit for an appropriate optical concentration and the cumulative volume distribution was determined using a laser light diffraction instrument in accordance with the instruction manual. Measurements were made before sonication and after sonication for up to 600 seconds. The parameters were set as follows: 50% amplitude at the ultrasonication device USGD-100 from Telsonic AG, and a measuring duration of about 20 seconds. The measurement was carried out twice.
The particle sizes at the undersize values of 10%, 50% and 90% (x10, x50, x90) were evaluated from the cumulative volume distribution after 240 seconds sonication. This was determined to be representative of the primary particle sizes.

[2] = Basic flow energy measurement (FT4 powder rheometer); type: physicochemical; conditions: 25 mm vessel, 23.5 mm blade
Experimental: Basic flow energy (BFE) is the energy required to establish a particular flow pattern in a conditioned, precise volume of powder. This flow pattern is a downward anti-clockwise motion of the blade, generating a compressive, relatively high stress flow mode in the powder. The BFE is calculated from the work done in moving the blade through the powder from the top of the vessel to the bottom, i.e. during the downward traverse.
In the present instance, the basic flow energy was measured using a FT4 powder rheometer from Freeman Technology under the following conditions: vessel size: 25 mm; standard Program Name: 25 mm_1C_Split_1 T; Starting accessory: 23.5 mm blade; Vessel: 25 mm×25 mL Split Vessel. The results were plotted in FIG. 9.

[3] = Compressibility measurement (FT-4 powder rheometer); type: physicochemical; conditions: measured at 15 kPa normal stress
Excerpt: Compressibility is a measure of how density changes as a function of applied normal stress. By definition, compressibility is the percent change in volume after compression (%). The measurements were made using a FT-4 powder rheometer from Freeman technology. N-(5-cyano-4-((2-methoxyethyl)amino)pyridin-2-yl)-7-formyl-6-((4-methyl-2-oxopiperazin-1-yl)methyl)-3,4-dihydro-1,8-naphthyridine-1(2H)-carboxamide particles obtained by the process of the present invention and particles obtained by the process described in PCT/IB2014/065585 were placed in a vessel and a vented piston was used to compress the particles. The vented piston is designed such that the compression face is constructed from a woven stainless steel mesh and allows the entrained air in the powder to escape uniformly across the surface of the powder bed. A normal stress was applied in 8 sequential compression steps beginning at 0.5 kPa and ending at 15 kPa. In each step, the normal stress was held constant for 60 seconds and the compressibility was automatically calculated as a percentage change in volume. The results were plotted in FIG. 10. The compressibility percentage measured at 15 kPa was 54.14% and 54.63% for particles of the present invention. For the particles obtained by the process described in PCT/IB2014/065585, the compressibility percentage measured at 15 kPa was 49.93%.

[4] = Wall friction angle measurement (FT-4 powder rheometer, stainless steel); type: physicochemical; conditions: 316 Stainless Steel discs, 1.2 microns average roughness
Excerpt: The wall friction test method has been developed to assess the interaction between the drug substance and stainless steel. The apparatus used is a FT-4 powder rheometer from Freeman technology.
N-(5-cyano-4-((2-methoxyethyl)amino)pyridin-2-yl)-7-formyl-6-((4-methyl-2-oxopiperazin-1-yl)methyl)-3,4-dihydro-1,8-naphthyridine-1(2H)-carboxamide particles obtained by the process of the present invention and particles obtained by the process described in PCT/IB2014/065585 were placed in a vessel containing the sample and a wall friction head to induce both vertical and rotational stresses. The powder sample is prepared by conditioning and then pre-consolidation using the standard FT4 blade and vented piston.
The wall friction head equipped with 1.2 microns average roughness of 316 Stainless Steel discs moves downwards to the surface of the sample and induces a normal stress as the disc contacts the top of the sample. The head continues to move downwards until the required normal stress is established. […] The torque required to maintain this rotational is measured which enables a “steady-state” shear stress to be calculated. […] A series of shear stress values is measured for a range of target applied stresses. […] The wall friction angle is then calculated by drawing a best fit line through the data points on the graph, and measuring the angle subtended between this best fit line and the horizontal. […]

[5] = tested on: HuH-7 hepatocellular carcinoma cells; assay: Methylene blue staining proliferation assay (MBS); type: cell-based; conditions: Homo sapiens, HuH-7 cells, 72 hours, read-out: HUH7 proliferation (nM) MBS
Experimental: Using a liquid handling device (Velocity 11 Bravo, Agilent), serial 3-fold dilutions of compounds were prepared in DMSO, prediluted in growth medium, followed by transfer of 10 uL/well to the cell plates. […] For data analysis, the assay background was determined in wells containing medium and lysis buffer, but no cells, and the corresponding value subtracted from all data points. […] Compound concentrations leading to half-maximal signal inhibition ([…]) were determined by standard four parametric curve fitting (XLfit 5.4, IDBS). […] Optical density was measured at A650 nm. […]

[6] = tested on: HuH-7 hepatocellular carcinoma cells; assay: CellTiter Glo (CTG) proliferation/viability assay; type: cell-based; conditions: Homo sapiens, 72 h, HuH-7 cells, 3 days, GI50, read-out: HUH7 proliferation (nM) CTG
Experimental: CellTiter Glo (CTG) Assay: […] Compound-mediated suppression of cell proliferation/viability is assessed by quantification of cellular ATP levels using the CellTiter-Glo (CTG) reagent (Promega, Cat# G7573). Briefly, cells are seeded at 3'000 cells/well/80 μl fresh medium into tissue-culture-treated 96-well plates (Costar Cat#3904), followed by addition of 20 μl medium containing compound dilutions at 5-fold their final intended concentration. Dose-response effects are assessed by 3-fold serial dilutions of the test compound, starting at 10 μM. Following incubation of the cells for 3 days at 37° C. and 5% CO2, the effect of inhibitors on cell viability is quantified following addition of 50 μl CTG and luminescence measurement (integration time: 500 ms) as per vendor manual, using a correspondingly equipped multi-mode plate reader ([…], TECAN, Switzerland). For data analysis, the assay background value determined in wells containing medium, but no cells, is subtracted from all data points. To enable differentiation of cytotoxic from cytostatic compounds, the number of viable cells is assessed relative to that observed at the time of compound addition using a separate cell plate (day 0). […] Compound concentrations leading to half-maximal growth inhibition (GI50) are determined using standard four parameter curve fitting (XLfit 5.2, IDBS, UK).

Row | Structure (SMILES) | median particle size (x50 or d50) [1] | particle size x10 or d10 [1] | particle size x90 or d90 [1] | basic flow energy ([2]; listed as particles obtained by the process described in PCT/IB2014/065585) | compressibility percentage [3] | wall friction angle [4] | basic flow energy [2] | IC50 [5] | IC50 [6]
1 | COCCNc1cc(NC(=O)N2CCCc3cc(CN4CCN(C)CC4=O)c(C=O)nc32)ncc1C#N.O=C(O)CC(O)(CC(=O)O)C(=O)O [Reference Example 1, N-(5-cyano-4-((2-methoxyethyl)amino)pyridin-2-yl)-7-formyl-6-((4-methyl-2-oxopiperazin-1-yl)methyl)-3,4-dihydro-1,8-naphthyridine-1(2H)-carboxamide in citric acid form (1:1)] | about 3 microns | about 1 micron | about 7 micron | 185.20 mJ | 49.93% | 43.18 ° | – | – | –
2 | COCCNc1cc(NC(=O)N2CCCc3cc(CN4CCN(C)CC4=O)c(C=O)nc32)ncc1C#N.O=C(O)CC(O)(CC(=O)O)C(=O)O [Example 1a, N-(5-cyano-4-((2-methoxyethyl)amino)pyridin-2-yl)-7-formyl-6-((4-methyl-2-oxopiperazin-1-yl)methyl)-3,4-dihydro-1,8-naphthyridine-1(2H)-carboxamide in citric acid form (1:1)] | – | – | – | – | – | – | 39.17 mJ | – | –
3 | COCCNc1cc(NC(=O)N2CCCc3cc(CN4CCN(C)CC4=O)c(C=O)nc32)ncc1C#N [Example 1, N-(5-cyano-4-((2-methoxyethyl)amino)pyridin-2-yl)-7-formyl-6-((4-methyl-2-oxopiperazin-1-yl)methyl)-3,4-dihydro-1,8-naphthyridine-1(2H)-carboxamide in citric acid salt form 1:1] | – | – | – | – | – | – | 65.07 mJ | 12 nM | 60.9 nM

Source: patent US9802917B2, “Particles of N-(5-cyano-4-((2-methoxyethyl)amino)pyridin-2-yl)-7-formyl-6-((4-methyl-2-oxopiperazin-1-yl)methyl)-3,4-dihydro-1,8-naphthyridine-1(2H)-carboxamide” (Novartis AG, priority 2015, dated 2017)
